Source: article PMC5608341, “The human VGF-derived bioactive peptide TLQP-21 binds heat shock 71 kDa protein 8 (HSPA8)on the surface of SH-SY5Y cells” (PLoS ONE, 2017)
Where no end group is shown, it is not given here. The star is where a group is joined. Biotin = O=C1N[C@H]2[C@H](CS[C@H]2CCCCC(=O)*)N1

How the values were obtained:
[1] = system: Heat shock cognate 71 kDa protein (HSPA8/HSC70); assay: Avidin-agarose affinity chromatography of SH-SY5Y cell homogenate with biotin-TLQP-21, SDS-PAGE/SYPRO Ruby and MASCOT MS/MS identification; HSPA8; format: binding, human; conditions: fractions 4-5, control column without biotin-TLQP-21
Procedure: Portions (25 μl) of each elution fraction from avidin-agarose affinity chromatography were boiled in 2x Laemmli buffer and loaded to a 10% SDS-PAGE gel. Electrophoresis was carried out at 200V for 60 minutes. After completion, the gel was washed in dH2O for 10 minutes. […] The gel was then transferred to a clean staining container, and washed for 5 minutes with fixing solution followed by washing for 5 minutes in dH2O.Finally, the gel was imaged in a Molecular Imager Gel Doc system (Bio Rad, Hercules) using the highest sensitivity of the CCD camera (CoolSNAP HQ2, Roper Scientific) at a resolution of 1392 x 1040 pixels with 12 bit gray scale levels per pixel. […] Extracted peptides were analyzed by LC-MS/MS. […] Ionized peptides were detected in a Bruker Amazon ETD ion trap. Automated analysis of mass data was performed by Data Analysis 4.0 and BioTools 3.2 from Bruker Daltonik GmbH. Database search was done with the Mascot v2.3 search tool (Matrix Science) screening SwissProt (release 57.15). Searches were limited to human taxonomy selecting carbamidomethyl cysteine as a fixed modification and oxidized methionine as potential variable modification. […] All spectra and database results were scrutinized manually in details using the above software, especially in the case of identifications based on one peptide hit. […]

[2] = system: HSPA8 on the surface of SH-SY5Y cells; assay: Crosslinking of biotinylated TLQP-21 to live SH-SY5Y surface membrane proteins, avidin affinity, Western blot; format: binding, human; conditions: 50 μM biotin-TLQP-21, 1 mM Sulfo-EMCS, 1 hour, room temperature; versus control without peptide
Procedure: After electrophoresis, as described earlier, proteins were transferred onto PVDF membranes (Millipore, Bedford) using semi-dry method (Trans-blot SD semi-dry transfer cell, Biorad). The membranes were then blocked 5% BSA in TBS-T solution (Tris-buffered saline with 0.1% tween 20, pH = 7.6) for 1 hour at room temperature, and probed with anti-HSC70/HSPA8 (Abcam) antibody at 1:500 dilution. Anti-rabbit antibody (Dako) at a 1:2000 dilution was used as the secondary antibody. Subsequently, the membrane was incubated with Luminata Forte Western HRP substrate [Merck Millipore] for 5 minutes and developed using Hypercassette and Amersham hyperfilm (GE Healthcare).
SH-SY5Y cells were grown as described above until confluence. Culture medium was removed, cells were washed three times with cold PBS and incubated with 2 mL of PBS containing 1 mM Sulfo-EMCS with 50 μM biotin-TLQP-21 for 1 hour at room temperature. Control cells were incubated under the same conditions with the same reaction mixture lacking biotin-TLQP-21. The cross-linking reaction was stopped adding Tris-HCl, pH 7.8 to a final concentration 50 mM. Cells were washed twice with cold PBS and solubilized in lysis buffer (20 mM HEPES pH 7.4, 2 mM EGTA, 1 mM DTT, 1 mM sodium orthovanadate, 1% Triton X-100, 10% glycerol, 2 μM leupeptin, 400 μM PMSF, 50 μM β-glycerophosphate and 100 μg/ml aprotinin). […]

HSPA8 [3] = conditions: pooled fractions 4 and 5, anti-HSPA8 1:500, three replicates, versus control fractions
Procedure: A monomeric avidin column (Thermo Scientific) was washed with 8 ml PBS followed by addition of 6 ml (2 mM D-biotin in PBS, pH = 7.2) to block any non-reversible biotin binding sites. Regeneration buffer (0.1M glycine, pH 2.8, 12 ml) was added to remove biotin from the reversible binding sites followed by washing with 8 ml of PBS. One ml of 0.1 mM biotin-TLQP-21 was mixed with 900 μl of PBS and 100 μl of 1mM TCEP and the resulting solution was applied to the column, which was incubated for an hour at room temperature. The column was then washed with 12 ml of PBS. A 2ml solution containing 700 μl of SH-SY5Y cell lysate with a protein concentration of 10μg/μl was diluted with 1.3 ml of PBS and applied then to the column. The column was then washed with 12 ml of PBS, and eluted with 10 ml of blocking/elution buffer. Fractions of 500 μl were collected and kept on ice until further use for analysis by SYPRO® Ruby Protein Gel Stain (Lonza), and Western blot. As a control, cell lysate solution was added under the same conditions to a column to which biotin-TLQP-21 was not attached.
After electrophoresis, as described earlier, proteins were transferred onto PVDF membranes (Millipore, Bedford) using semi-dry method (Trans-blot SD semi-dry transfer cell, Biorad). […]

HSPA8 [4] = target: T1, HSPA8 (Homo sapiens, UniProt P11142); conditions: ref [45]; read-out: affinity of HSPA8 for the phosphorylated peptide P140; cited from earlier work
T1 construct: HSPA8 immobilization was performed by adding 15 μl of 25 μg/ml of protein in 20 mM sodium acetate buffer
T1 sequence (P11142 whole entry): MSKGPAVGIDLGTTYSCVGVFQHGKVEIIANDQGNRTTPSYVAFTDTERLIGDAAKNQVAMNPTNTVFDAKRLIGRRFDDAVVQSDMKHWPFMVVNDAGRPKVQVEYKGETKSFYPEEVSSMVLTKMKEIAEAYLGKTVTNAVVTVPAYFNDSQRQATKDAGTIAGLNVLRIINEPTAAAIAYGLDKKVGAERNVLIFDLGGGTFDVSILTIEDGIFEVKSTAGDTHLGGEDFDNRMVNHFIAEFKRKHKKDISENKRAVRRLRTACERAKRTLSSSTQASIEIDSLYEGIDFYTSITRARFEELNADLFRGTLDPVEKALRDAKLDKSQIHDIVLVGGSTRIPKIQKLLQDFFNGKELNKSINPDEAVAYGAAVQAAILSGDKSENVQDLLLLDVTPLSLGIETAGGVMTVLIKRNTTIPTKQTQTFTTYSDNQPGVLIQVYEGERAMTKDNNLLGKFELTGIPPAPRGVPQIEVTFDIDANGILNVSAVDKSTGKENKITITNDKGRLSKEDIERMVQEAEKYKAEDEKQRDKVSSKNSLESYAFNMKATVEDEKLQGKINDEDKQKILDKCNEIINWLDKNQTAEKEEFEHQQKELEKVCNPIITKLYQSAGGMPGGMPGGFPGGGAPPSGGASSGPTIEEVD

[5] = system: globular head of the complement component C1q receptor (gC1qR); conditions: ref [29]; cited from earlier work
Excerpt: (§1) Remarkably, despite the large volume of data on effects of VGF-derived peptides, very little is known about their receptors, downstream signaling routes and mechanisms of action. […] We reasoned that the neuroblastoma cell line SH-SY5Y would be a good model to study receptors and downstream mechanisms of VGF-derived peptides, given the substantial expression and secrete levels of VGF and VGF-derived ...

[6] = system: complement component-3a receptor 1 (C3AR1); conditions: ref [27]–[28]; cited from earlier work
Excerpt: as §1

Substance: Biotin-TLQPPSALRRRHYHHALPPSRC [biotin-TLQP-21, amino-terminally biotinylated human TLQP-21 containing an extra cysteine residue at the C-terminus]
- ~70 kDa protein bound on biotin-TLQP-21 column (SYPRO Ruby) [1]: A ~70 kDa protein was bound
- ~70 kDa protein bound on biotin-TLQP-21 column (SYPRO Ruby) ([1]; listed as biotinyl-TLQP-21): a protein band of ∼70 kDa was detected by SYPRO Ruby staining
- cross-linking to HSPA8 on live cell surface [2]: A positive ~70kDa band corresponding to HSPA8 was detected
- Western blot detection of HSPA8 in eluate of biotin-TLQP-21 column (HSPA8 [3]): confirmed the ~70 kDa protein as HSPA8 but not in the controls

Substance: P140: phosphorylated peptide P140, corresponds to a portion of the spliceosomal U1-70K snRNP protein, recognized by lupus CD4+ T cells (RIHMVYSKRSGKPRGYAFIEY; phospho-Ser140 (10th residue of the peptide); P140/Lupuzor is conventionally U1-70K (SNRNP70) 131-151)
- Kd (HSPA8 [4]): ~7 µM

Substance: TLQPPASSRRRHFHHALPPAR [murine TLQP-21, mouse TLQP-21]
- gC1qR as receptor [5]: identified as potential receptors
- C3AR1 as receptor [6]: identified as potential receptors
